Source: ChEMBL document CHEMBL6096690, “Synthesis and Biological Evaluation of Peripheral HTR2A Antagonists for Colorectal Cancer” (J Med Chem, 2025)

What was measured:
[1] = target: 5-hydroxytryptamine receptor 2A (Homo sapiens, UniProt P28223); assay: Antagonist activity at 5HTR2A (unknown origin) assessed as inhibition of 5-HTR2A
hERG (KCNH2) = hERG (KCNH2) (Homo sapiens, UniProt Q12809); assay: Inhibition of hERG at 10 uM relative to control; assay type: toxicity
hERG (KCNH2), sequence (Q12809 whole entry): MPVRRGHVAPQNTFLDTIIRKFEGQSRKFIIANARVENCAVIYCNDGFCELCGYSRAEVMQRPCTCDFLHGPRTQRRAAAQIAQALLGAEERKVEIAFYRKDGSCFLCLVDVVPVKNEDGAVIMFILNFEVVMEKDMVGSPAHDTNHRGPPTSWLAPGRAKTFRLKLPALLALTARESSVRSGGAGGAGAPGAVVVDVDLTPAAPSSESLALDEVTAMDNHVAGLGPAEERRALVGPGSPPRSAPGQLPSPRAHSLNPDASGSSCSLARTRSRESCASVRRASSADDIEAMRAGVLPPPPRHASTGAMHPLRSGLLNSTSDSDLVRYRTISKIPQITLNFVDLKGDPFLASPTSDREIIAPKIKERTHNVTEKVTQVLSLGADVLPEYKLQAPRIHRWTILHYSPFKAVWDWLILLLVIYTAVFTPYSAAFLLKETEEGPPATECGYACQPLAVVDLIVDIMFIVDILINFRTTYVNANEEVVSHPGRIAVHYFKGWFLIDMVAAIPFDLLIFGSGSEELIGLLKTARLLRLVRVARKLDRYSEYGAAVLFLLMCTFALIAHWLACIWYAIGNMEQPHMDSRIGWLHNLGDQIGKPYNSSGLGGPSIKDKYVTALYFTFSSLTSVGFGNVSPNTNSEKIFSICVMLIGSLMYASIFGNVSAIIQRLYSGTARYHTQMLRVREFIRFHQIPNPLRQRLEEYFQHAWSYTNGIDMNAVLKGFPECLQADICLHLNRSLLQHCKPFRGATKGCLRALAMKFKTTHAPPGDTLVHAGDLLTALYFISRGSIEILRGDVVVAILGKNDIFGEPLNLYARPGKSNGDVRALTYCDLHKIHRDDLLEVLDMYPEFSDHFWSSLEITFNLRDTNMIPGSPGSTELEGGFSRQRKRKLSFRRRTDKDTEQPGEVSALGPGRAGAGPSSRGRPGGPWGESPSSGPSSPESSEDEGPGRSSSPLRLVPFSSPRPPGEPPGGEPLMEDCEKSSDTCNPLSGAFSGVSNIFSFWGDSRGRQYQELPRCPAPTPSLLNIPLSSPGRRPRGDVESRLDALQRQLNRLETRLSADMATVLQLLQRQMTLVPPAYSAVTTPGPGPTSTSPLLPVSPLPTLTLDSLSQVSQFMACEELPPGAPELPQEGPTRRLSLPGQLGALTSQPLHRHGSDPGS

5-hydroxytryptamine receptor 2A, sequence (P28223 whole entry): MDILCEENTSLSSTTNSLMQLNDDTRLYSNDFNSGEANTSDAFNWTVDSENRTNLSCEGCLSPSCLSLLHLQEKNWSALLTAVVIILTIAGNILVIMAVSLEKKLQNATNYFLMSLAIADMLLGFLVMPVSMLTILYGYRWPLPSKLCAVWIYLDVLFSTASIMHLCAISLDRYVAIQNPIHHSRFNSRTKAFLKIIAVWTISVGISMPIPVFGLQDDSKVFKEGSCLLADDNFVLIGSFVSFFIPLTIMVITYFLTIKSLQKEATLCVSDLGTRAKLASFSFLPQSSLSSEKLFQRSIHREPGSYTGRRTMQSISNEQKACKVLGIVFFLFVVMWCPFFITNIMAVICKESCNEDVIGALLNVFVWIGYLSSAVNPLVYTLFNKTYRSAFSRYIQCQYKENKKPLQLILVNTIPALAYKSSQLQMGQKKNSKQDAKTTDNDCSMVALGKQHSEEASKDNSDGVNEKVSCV

| IC50 [1] [nM] | SMILES | inhibition at 10 µM (hERG (KCNH2)) [%] |
| --- | --- | --- |
| 820 | O=C(NCc1ccc(OCC(O)CN2CCC(C3c4ccc(Cl)cc4CCc4cccnc43)CC2)cc1)N(Cc1ccc(F)cc1)C1CCNCC1 (stereo not drawn) | – |
| 46.5 | O=C(NCc1ccc(OCC(O)CN2CCN(c3noc4cc(F)ccc34)CC2)cc1)N(Cc1ccc(F)cc1F)C1CCNCC1 (stereo not drawn) | 87.7 |
